Results on 1 compound are retold here after patent publication US20070270409A1, “Medicament for Preventing and/or Treating Ischemic Cardiovascular Disease” (Mitsubishi Pharma Corporation, priority 2004, published 2007).

The assay deals with patients with anterior ST-segment elevation myocardial infarction undergoing PCI. Nature of the assay: Clinical study of caldaret in patients undergoing PCI: SPECT measurements and cardiac serum markers. The class given is in vivo. The note with it: for Infarct size (% of the left ventricle): continuous intravenous 48 hours started about 30 minutes before PCI; for Infarct size (% of the left ventricle) / EDV (left ventricular end-diastolic volume) / ESV (left ventricular end-systolic volume) / LVEF (left ventricular ejection fraction): SPECT at day 7; for Infarct size (% of the left ventricle) / Serum marker CK / Serum marker TnT / EDV (left ventricular end-diastolic volume) / ESV (left ventricular end-systolic volume) / LVEF (left ventricular ejection fraction): TIMI flow grade 0 or 1; for Serum marker CK / Serum marker TnT / EDV (left ventricular end-diastolic volume) / ESV (left ventricular end-systolic volume) / LVEF (left ventricular ejection fraction): continuous intravenous 48 hours; for Serum marker CK: AUC of CK at days 0 to 3; for Serum marker TnT: AUC of TnT at days 0 to 5. As to the method: Three hundred and eighty-seven patients with ΣST elevation of 10 mm or more undergoing PCI were divided into 3 groups: a caldaret non-administration group; a 61.5 mg caldaret administration group (57.5 mg in terms of 5-methyl-2-(1-piperazinyl)benzenesulfonic acid) (low-dose group); and a 184.6 mg caldaret administration group (172.5 mg in terms of 5-methyl-2-(1-piperazinyl)benzenesulfonic acid) (high-dose group). To these patients, administration of placebo (the caldaret non-administration group) or caldaret (the low-dose group and the high-dose group) was initiated about 30 minutes before PCI was performed. Placebo or caldaret was continuously administered intravenously for 48 hours. At day 7 after administration (the initiation day of adminstration=day 0 after administration, and hereinafter the same), the infarct size, the left ventricular end-systolic volume (ESV), the left ventricular end-diastolic volume (EDV) and the left ventricular ejection fraction (LVEF) were measured by SPECT and the cardiac serum markers were measured. Incidentally, as for the serum markers, AUC of TnT at days 0 to 5 after administration and AUC of CK at days 0 to 3 after administration were measured.
Hereinafter, the measurement results in 247 patients with TIMI flow grade 0 or 1 diagnosed with anterior ST-segment elevation myocardial infarction (88 patients in the low-dose group, 70 patients in the high-dose group and 89 patients in the caldaret non-administration group) are shown.

The mark [1] stands for this setting: high-dose group, 184.6 mg caldaret.
Where [2] appears, read: low-dose group, 61.5 mg caldaret.

For the compound `Cc1ccc(N2CCNCC2)c(S(=O)(=O)O)c1.O` [caldaret, 5-methyl-2-(1-piperazinyl)benzenesulfonic acid monohydrate], the “All the measurement parameters compared with the non-administration group” value (359 patients with anterior ST-segment elevation myocardial infarction regardless of the TIMI flow grade, low-dose and high-dose groups) is listed as “improving tendency”. In addition, under setting [1], the “Infarct size (% of the left ventricle)” value is 25.7 (b) % of the left ventricle, the “Serum marker CK” value is 1157 (*) IU/I, the “Serum marker TnT” value stood at 4.3 mg/L and the “EDV (left ventricular end-diastolic volume)” value was 134.1 mL. In addition, under setting [1], the “ESV (left ventricular end-systolic volume)” value came out at 78.0 mL and the “LVEF (left ventricular ejection fraction)” value is 38.1 (*) %. For the same compound, under setting [2], the “Infarct size (% of the left ventricle)” value is 24.4 (a) % of the left ventricle, the “Serum marker CK” value was 1144 (*) IU/I, the “Serum marker TnT” value amounted to 5 mg/L and the “EDV (left ventricular end-diastolic volume)” value came to 138.4 mL. Further, under setting [2], the “ESV (left ventricular end-systolic volume)” value is 80.7 mL and the “LVEF (left ventricular ejection fraction)” value came out at 36.6%. In addition, the “Effect on myocardial injury and myocardial function” value (patient with anterior ST-segment elevation myocardial infarction undergoing percutaneous coronary intervention, overall conclusion) was “can alleviate myocardial injury and preserve myocardial function”.
